# In PMC6268262, “Improved Antileishmanial Activity of Dppz through Complexation with Antimony(III) and Bismuth(III): Investigation of the Role of the Metal” (Molecules, 2012):
# Like-named read-outs stand apart in the source and are kept apart here.
# Experiments:
# [1] = tested on: L. amazonensis (SbR) promastigotes, BA199Sb2700.2; assay: Antileishmanial activity assay, promastigote growth, Sb-resistant mutant; format: cell-based, Leishmania amazonensis; details: 72 h, read-out: IC50 (μM) ± SEM
# Description: (§1) Leishmania (Leishmania) amazonensis (strain MHOM/BR/1989/BA199) and Leishmania (Leishmania)infantum chagasi (strain MCAN/BR/2002/BH400) promastigotes were maintained in minimum essential culture medium (α-MEM) (Gibco, Invitrogen, Grand Island, NY, USA) supplemented with 10% (v/v) heat inactivated fetal calf serum (Cultilab, Campinas, SP, Brazil), […] kanamycin, […] ampicillin, 2 mM L-glutamine, 5 mg/mL hemin, 5 mM biopterin, (Sigma-Aldrich), pH 7.0 and incubated at 25 °C. L. amazonensis and L. infantum chagasi were selected for Sb(III) resistance as previously decribed. The Sb(III)-resistant mutants L. amazonensis BA199Sb2700.2 and L. infantum chagasi BH400Sb2700.2 were selected in 25 cm^2 flasks containing 5 mL of α-MEM in the presence of increasing Sb(III) concentrations up to 2,700 μM.
# (§2) Complexes 1 and 2 were evaluated in vitro for their activity against both Sb(III)-sensitive and -resistant Leishmania parasites. Log-phase L. amazonensis and L. infantum chagasi promastigotes (1 × 10^6 parasites/mL) were seeded in 24-wells cell culture plates with 1.5 mL of α-MEM, incubated under shaking at 25 °C during 72 h in the presence of several concentrations of complex 1 or 2. Controls were performed using cultures in the presence of potassium antimonyl tartrate, SbCl3, BiCl3 and dppz itself. Non-treated parasites were established for growth comparison. Stock solutions of dppz, its complexes, SbCl3 and BiCl3 were dissolved in DMSO (5 M) and diluted in α-MEM cell culture medium to obtain the range of tested concentrations. […] For drug susceptibility assay, Leishmania growth curves were constructed by measuring absorbance at 600 nm. […] All experiments were done at least three times as independent experiments performed in triplicate.
# (§3) The IC50 and CC50 values were calculated by nonlinear regression using the software GraphPad Prism 5.0. The acceptable level of significance was 95% (p < 0.05).
# [2] = tested on: L. infantum chagasi (WT) promastigotes, strain BH400; assay: Antileishmanial activity assay, promastigote growth (absorbance 600 nm), wild-type strain; format: cell-based, Leishmania infantum chagasi; details: 72 h, 25 °C
# Description: as §1, §2, §3
# [3] = tested on: L. infantum chagasi (SbR) promastigotes, BH400Sb2700.2; assay: Antileishmanial activity assay, promastigote growth, Sb-resistant mutant; format: cell-based, Leishmania infantum chagasi; details: 72 h, read-out: IC50 (μM) ± SEM
# Description: as §1, §2, §3
# [4] = tested on: L. amazonensis (WT) promastigotes, strain BA199; assay: Antileishmanial activity assay, promastigote growth, wild-type strain; format: cell-based, Leishmania amazonensis; details: 72 h, 25 °C
# Description: as §1, §2, §3
# [5] = tested on: mouse peritoneal macrophages; assay: Cytotoxicity assay against peritoneal macrophages (MTT); format: cell-based
# Description: (§4) Macrophages were obtained by lavage of peritoneal cavity of mice with 10 mL cold RPMI without FBS. After washing, the cell suspension (4.0 × 10^6/mL) was seeded (0.1 mL) in 96-well flat bottom plates. Macrophages were allowed to adhere for 2 h and non-adherent cells were removed by washing with RPMI. Then, the studied compounds were added to the wells at concentrations ranging from 1 to 20 μM and the cells were further cultured in RPMI-1640 supplemented with 10% FBS for 24 h at 37 °C in a humidified 5% CO2 atmosphere. Thereafter, the medium was replaced with fresh RPMI containing 0.5 mg/mL of MTT and the plates were incubated for additional 4 h. Supernatants were aspirated and the formazan crystals formed were dissolved in 100 μL of DMSO. After 15 min of incubation at room temperature, absorbance of solubilized MTT formazan product was spectrophotometrically measured at 570 nm.
# as §3
# [6] = as above; format: cell-based, mouse; details: mouse peritoneal macrophages, MTT, 24 h
# Description: as §4, §3
# Leishmania promastigotes = assay: microbe, parasite or virus in culture; format: cell-based, Leishmania infantum chagasi and Leishmania amazonensis; details: for concentration in whose presence Sb-resistant lines failed to grow: L. infantum chagasi BH400 Sb2700.2 and L. amazonensis BA199 Sb2700.2
# Description: as §1, §2
# [7] = n-Octanol/water partition coefficient, Shake-Flask method; format: physicochemical; details: phosphate buffer pH 6.8
# Description: Then, three different partition system were prepared by adding these solutions to water-saturated octanol, in octanol/water volume ratios, 1:1, 1:2 and 2:1 in duplicate. The mixtures were vortexed for 10 min and then centrifuged for 5 min. The partition coefficients were determined using the absorbance of complexes 1 and 2. Calculated dppz log P value was obtained from the program ALOGPS 2.143 available on line.
# [8] = Stability of the complexes by UV absorption spectroscopy; format: physicochemical; details: 10 µmol·L^−1 in DMSO, DMSO-containing water and octanol, 0 to 4 h
# Description: The stability of the complexes was checked by UV absorption spectroscopy. For this purpose, UV absorption spectra were registered at different time intervals (from 0 to 4 h) for dppz and complexes 1 and 2 at 10 µmol·L^−1 in DMSO, DMSO-containing water and octanol.
# [9] = L. amazonensis (SbR) promastigotes, 25 °C
# [10] = L. infantum chagasi (SbR) promastigotes, 25 °C
# [11] = listed as dppzBiCl3, read-out: IC50 (μM) ± SEM
# [12] = listed as dppzSbCl3, read-out: IC50 (μM) ± SEM
molecule,measurement,setting,value
"[Cl][Bi]([Cl])[Cl] [BiCl3, Bi(III) chloride]",IC50,[1]; [9],> 500 µM
same,IC50,[2]; read-out: IC50 (μM) ± SEM,563 ± 2 µM
same,IC50,[3]; [10],> 500 µM
same,IC50,[4]; read-out: IC50 (μM) ± SEM,621 ± 2 µM
"c1ccc2nc3c4cccnc4c4ncccc4c3nc2c1 [Dppz, dipyrido[3,2-a:2',3'-c]phenazine]",IC50,[1]; Leishmania amazonensis,2 ± 0.05 µM
same,IC50,"[2]; Leishmania infantum, read-out: IC50 (μM) ± SEM",0.81 ± 0.04 µM
same,IC50,[3]; Leishmania infantum,1.86 ± 0.08 µM
same,SI: selective index,[5]; ratio between CC50 in murine macrophages and IC50 in L. infantum chagasi (WT),15.4
same,CC50 at 24 h,[6],12.5 µM
same,IC50,"[4]; Leishmania amazonensis, read-out: IC50 (μM) ± SEM",> 2 µM
same,IC50,"Leishmania promastigotes; Leishmania, read-out: IC50 range over strains",0.8 to 2 µM
"[Cl][Sb]([Cl])[Cl] [SbCl3, antimony trichloride]",IC50,[1]; [9],1503 ± 2 µM
same,IC50,[2]; read-out: IC50 (μM) ± SEM,341 ± 2 µM
same,IC50,[3]; [10],462 ± 3 µM
same,IC50,[4]; read-out: IC50 (μM) ± SEM,362 ± 2 µM
"O=C([O-])[C@H]([O-])[C@@H]([O-])C(=O)[O-].O=C([O-])[C@H]([O-])[C@@H]([O-])C(=O)[O-].[K+].[K+].[Sb+3].[Sb+3] [TA, potassium antimonyl tartrate]",IC50,[1]; [9],> 2700 µM
same,IC50,[2]; read-out: IC50 (μM) ± SEM,100 ± 3 µM
same,IC50,[3]; [10],> 2700 µM
same,IC50,[4]; read-out: IC50 (μM) ± SEM,83 ± 1 µM
[Bi(dppz)Cl3] [complex 2],IC50,[1]; [9],1.12 ± 0.01 µM
same,IC50,[2]; [11],0.59 ± 0.01 µM
same,IC50,[2]; read-out: IC50 (μM) ± SEM,~0.6 µM
same,IC50,[3]; [10],0.61 ± 0.02 µM
same,IC50,[4]; [11],1.07 ± 0.03 µM
same,IC50,[4]; read-out: IC50 (μM) ± SEM,~1 µM
same,log P (octanol/water partition coefficient),[7],0.98 ± 0.17
same,UV absorption spectra as a function of time (stability),[8],did not show significant changes as a function of time
same,concentration in whose presence Sb-resistant lines failed to grow,Leishmania promastigotes,≤ 1.12 µM
[Sb(dppz)Cl3] [complex 1],IC50,[1]; [9],0.92 ± 0.02 µM
same,IC50,[2]; [12],0.62 ± 0.01 µM
same,IC50,[2]; read-out: IC50 (μM) ± SEM,~0.6 µM
same,IC50,[3]; [10],0.57 ± 0.01 µM
same,CC50,"[5]; read-out: CC50: concentration of dppz which is cytotoxic against 50% of macrophages, mouse peritoneal macrophages, MTT, 24 h",7 µM
same,IC50,[4]; [12],0.95 ± 0.02 µM
same,IC50,[4]; read-out: IC50 (μM) ± SEM,~1 µM
same,log P (octanol/water partition coefficient),[7],0.94 ± 0.24
same,UV absorption spectra as a function of time (stability),[8],did not show significant changes as a function of time
same,concentration in whose presence Sb-resistant lines failed to grow,Leishmania promastigotes,≤ 1.12 µM
